Read-outs that look alike come from different tables or passages of the source.
Tests used:
[1] = parameters: species or system male white mice (CF1); conditions: mouse, in vivo; for ED50 (effective analgesic dose in 50% of the mice), p.o.: po; for ED50 (effective analgesic dose in 50% of the mice), s.c.: sc
kappa receptor [2] = conditions: rat, in vivo
kappa receptor [3] = conditions: rat, in vivo; cited from earlier work

SMILES	ED50 (effective analgesic dose in 50% of the mice), p.o. [1]	ED50 (effective analgesic dose in 50% of the mice), s.c. [1]	further results
COCOc1cccc2c1CC[C@@H](N1CCCC1)[C@@H]2N(C)C(=O)Cc1ccc(Cl)c(Cl)c1 (relative stereo) [Example 48]	13. mg/kg	4.5 mg/kg	
CN(C(=O)Cc1ccc(Cl)c(Cl)c1)[C@@H]1c2c(ccc3ccccc23)CC[C@H]1N1CCCC1 (relative stereo) [Example 69]	16. mg/kg	3.0 mg/kg	
CN(C(=O)Cc1ccc(C(F)(F)F)cc1)[C@@H]1c2ccccc2CC[C@H]1N1CCCC1 (relative stereo) [Example 12]	54. mg/kg	19. mg/kg	
CN(C(=O)Cc1ccccc1)[C@@H]1c2ccccc2CC[C@H]1N1CCCC1 (relative stereo) [Example 11]	> 81. mg/kg	30. mg/kg	
CN(C(=O)Cc1ccc(Cl)c(Cl)c1)[C@@H]1c2ccccc2OC[C@H]1N1CCCC1 (relative stereo) [Example 7, trans-3,4-Dichloro-N-methyl-N-[3,4-dihydro-3-(pyrrolidin-1-yl)-2H-benzopyran-4-yl]benzeneacetamide]	36 mg/kg	1.7 mg/kg	
CN(C)C(=S)Oc1cccc2c1CC[C@@H](N1CCCC1)[C@@H]2N(C)C(=O)Cc1ccc(Cl)c(Cl)c1.Cl (relative stereo) [Example 68, trans-3,4-dichloro-N-methyl-N-[2-(pyrrolidin-1-yl)-5-(N,N-dimethylthiocarbamoyloxy)-1,2,3,4-tetrahydronaphth-1-yl]benzeneacetamide hydrochloride]	18. mg/kg	1.7 mg/kg	
COc1cccc2c1CC[C@@H](N1CC=CC1)[C@@H]2N(C)C(=O)Cc1ccc(Cl)c(Cl)c1.Cl (relative stereo) [Example 50, trans-3,4-dichloro-N-methyl-N-[2-(2,5-dihydro-1H-pyrrol-1-yl)-5-methoxy-1,2,3,4-tetrahydronaphth-1-yl]benzeneacetamide hydrochloride]	3.4 mg/kg	0.24 mg/kg	
CN(C(=O)Cc1ccc(Cl)c(Cl)c1)[C@@H]1c2cccc(OC(=O)c3ccccc3)c2CC[C@H]1N1CCCC1.Cl (relative stereo) [Example 16, trans-3,4-dichloro-N-methyl-N-[2-(pyrrolidin-1-yl)-5-benzoyloxy-1,2,3,4-tetrahydronaphth-1-yl]benzeneacetamide hydrochloride]	10. mg/kg	0.71 mg/kg	
CN(C(=O)Cc1ccc(Br)cc1)[C@@H]1c2ccccc2CC[C@H]1N1CCCC1 (relative stereo) [Example 10]	54. mg/kg	8.1 mg/kg	
CN(C(=O)Cc1ccccc1)[C@@H]1c2ccccc2OC[C@H]1N1CCCC1.Cl (relative stereo) [Example 19, trans-N-methyl-N-[3,4-dihydro-3-(pyrrolidin-1-yl)-2H-benzopyran-4-yl]benzeneacetamide hydrochloride]	36. mg/kg	1.7 mg/kg	
COc1cccc2c1OC[C@@H](N1CCCC1)[C@@H]2N(C)C(=O)Cc1ccc(Cl)c(Cl)c1.Cl (relative stereo) [Example 20, trans-3,4-dichloro-N-methyl-N-[3,4-dihydro-8-methoxy-3-(pyrrolidin-1-yl)-2H-benzopyran-4yl]benzeneacetamide hydrochloride]	30. mg/kg	1.2 mg/kg	
CN1CC[C@]23c4c5ccc(O)c4O[C@H]2[C@@H](O)C=C[C@H]3[C@H]1C5 [Morphine]	3.8 mg/kg	1.0 mg/kg	% increase over control (urine output) (kappa receptor [2]): 48%; increase in urine flow / diuresis, in words (kappa receptor [2]): minimal or no diuresis; mean cumulative urine output at 5 hours (kappa receptor [2]): 1.38 mL; % increase over control (urine output) (kappa receptor [2]; sc): 159%; mean cumulative urine output at 5 hours (kappa receptor [2]; sc): 2.41 mL; toxicity / deaths (kappa receptor [2]; sc): Toxic (2/8 dead); increase in urine flow, in words (kappa receptor [3]): largely devoid of this property
COCc1c(O)ccc2c1CC[C@@H](N1CCCC1)[C@@H]2N(C)C(=O)Cc1ccc(Cl)c(Cl)c1 (relative stereo) [Example 25]	54. mg/kg	0.19 mg/kg	
